Read-outs that look alike come from different tables or passages of the source.
Legend:
[1] = tested on: microorganisms with acquired resistance
[2] = tested on: inherently resistant microorganisms; settings: for MBI 26 MIC +Vancomycin: Teicoplanin table
[3] = E. coli ECO3, pair Mupirocin / MBI 11D18CN
[4] = S. aureus 19 MRSA, pair Piperacillin / MBI 11D18CN

## KWKSFIKKLTSAAKKVVTTAKPLISS [MBI 26]
[1]; S. aureus SA7609, pair Erythromycin / MBI 26
  Peptide MIC: 1 µg/mL
[1]; S. aureus SA7795, pair Erythromycin / MBI 26
  Peptide MIC: 8 µg/mL
[1]; S. aureus SA7796, pair Erythromycin / MBI 26
  Peptide MIC: 2 µg/mL
[1]; S. aureus SA7818, pair Methicillin / MBI 26
  Peptide MIC: 2 µg/mL
[1]; S. aureus SA7835, pair Erythromycin / MBI 26
  Peptide MIC: 2 µg/mL
[1]; S. aureus SA7835, pair Methicillin / MBI 26
  Peptide MIC: 16 µg/mL
[1]; S. epidermidis SE8403, pair Erythromycin / MBI 26
  Peptide MIC: 2 µg/mL
[1]; S. epidermidis SE8410, pair Erythromycin / MBI 26
  Peptide MIC: 1 µg/mL
[1]; S. epidermidis SE8411, pair Erythromycin / MBI 26
  Peptide MIC: 1 µg/mL
[1]; S. epidermidis SE8497, pair Clindamycin / MBI 26
  Peptide MIC: 2 µg/mL
[1]; S. epidermidis SE8497, pair Erythromycin / MBI 26
  Peptide MIC: 1 µg/mL
[1]; S. epidermidis SE8503, pair Erythromycin / MBI 26
  Peptide MIC: 1 µg/mL
[1]; S. epidermidis SE8565, pair Erythromycin / MBI 26
  Peptide MIC: 1 µg/mL
[1]; S. haemolyticus SH8472, pair Ampicillin / MBI 26
  Peptide MIC: 16 µg/mL
[1]; S. haemolyticus SH8563, pair Methicillin / MBI 26
  Peptide MIC: 2 µg/mL
[1]; S. haemolyticus SH8575, pair Ampicillin / MBI 26
  Peptide MIC: 8 µg/mL
[1]; S. haemolyticus SH8578, pair Erythromycin / MBI 26
  Peptide MIC: 0.1 µg/mL
[1]; S. haemolyticus SH8597, pair Clindamycin / MBI 26
  Peptide MIC: 1 µg/mL
[2]; E. casseliflavus 97056 VanC
  MBI 26 MIC +Vancomycin: 2 µg/mL
[2]; E. casseliflavus 97056 VanC, Vancomycin +MBI 26
  MIC in combination: 1 µg/mL
[2]; E. casseliflavus 97056 VanC, pair Teicoplanin / MBI 26
  MIC Alone: 64 µg/mL
[2]; E. casseliflavus 97056 VanC, pair Vancomycin / MBI 26
  MIC Alone: 8 µg/mL
[2]; E. casseliflavus 97057 VanC
  MBI 26 MIC +Vancomycin: 0.5 µg/mL
[2]; E. casseliflavus 97057 VanC, Vancomycin +MBI 26
  MIC in combination: 0.5 µg/mL
[2]; E. casseliflavus 97057 VanC, pair Teicoplanin / MBI 26
  MIC Alone: 64 µg/mL
[2]; E. casseliflavus 97057 VanC, pair Vancomycin / MBI 26
  MIC Alone: 2 µg/mL
[2]; E. casseliflavus 97058 VanC
  MBI 26 MIC +Vancomycin: 0.5 µg/mL
[2]; E. casseliflavus 97058 VanC, Vancomycin +MBI 26
  MIC in combination: 0.25 µg/mL
[2]; E. casseliflavus 97058 VanC, pair Teicoplanin / MBI 26
  MIC Alone: 32 µg/mL
[2]; E. casseliflavus 97058 VanC, pair Vancomycin / MBI 26
  MIC Alone: 4 µg/mL
[2]; E. casseliflavus 97059 VanC
  MBI 26 MIC +Vancomycin: 1 µg/mL
[2]; E. casseliflavus 97059 VanC, Vancomycin +MBI 26
  MIC in combination: 0.5 µg/mL
[2]; E. casseliflavus 97059 VanC, pair Teicoplanin / MBI 26
  MIC Alone: 64 µg/mL
[2]; E. casseliflavus 97059 VanC, pair Vancomycin / MBI 26
  MIC Alone: 32 µg/mL
[2]; E. casseliflavus 97060 VanC
  MBI 26 MIC +Vancomycin: 1 µg/mL
[2]; E. casseliflavus 97060 VanC, Vancomycin +MBI 26
  MIC in combination: 0.25 µg/mL
[2]; E. casseliflavus 97060 VanC, pair Teicoplanin / MBI 26
  MIC Alone: 64 µg/mL
[2]; E. casseliflavus 97060 VanC, pair Vancomycin / MBI 26
  MIC Alone: 0.5 µg/mL
[2]; E. gallinarum 97044 VanC
  MBI 26 MIC +Vancomycin: 1 µg/mL
[2]; E. gallinarum 97044 VanC, Vancomycin +MBI 26
  MIC in combination: 0.5 µg/mL
[2]; E. gallinarum 97044 VanC, pair Teicoplanin / MBI 26
  MIC Alone: 64 µg/mL
[2]; E. gallinarum 97044 VanC, pair Vancomycin / MBI 26
  MIC Alone: 8 µg/mL
[2]; E. gallinarum 97046 VanC
  MBI 26 MIC +Vancomycin: 1 µg/mL
[2]; E. gallinarum 97046 VanC, Vancomycin +MBI 26
  MIC in combination: 4 µg/mL
[2]; E. gallinarum 97046 VanC, pair Teicoplanin / MBI 26
  MIC Alone: 8 µg/mL
[2]; E. gallinarum 97046 VanC, pair Vancomycin / MBI 26
  MIC Alone: 2 µg/mL
[2]; E. gallinarum 97047 VanC
  MBI 26 MIC +Vancomycin: 32 µg/mL
[2]; E. gallinarum 97047 VanC, Vancomycin +MBI 26
  MIC in combination: 8 µg/mL
[2]; E. gallinarum 97047 VanC, pair Teicoplanin / MBI 26
  MIC Alone: 64 µg/mL
[2]; E. gallinarum 97047 VanC, pair Vancomycin / MBI 26
  MIC Alone: 64 µg/mL
[2]; E. gallinarum 97048 VanC
  MBI 26 MIC +Vancomycin: 1 µg/mL
[2]; E. gallinarum 97048 VanC, Vancomycin +MBI 26
  MIC in combination: 2 µg/mL
[2]; E. gallinarum 97048 VanC, pair Teicoplanin / MBI 26
  MIC Alone: 8 µg/mL
[2]; E. gallinarum 97048 VanC, pair Vancomycin / MBI 26
  MIC Alone: 2 µg/mL
[2]; E. gallinarum 97049 VanC
  MBI 26 MIC +Vancomycin: 32 µg/mL
[2]; E. gallinarum 97049 VanC, Vancomycin +MBI 26
  MIC in combination: 16 µg/mL
[2]; E. gallinarum 97049 VanC, pair Teicoplanin / MBI 26
  MIC Alone: 64 µg/mL
[2]; E. gallinarum 97049 VanC, pair Vancomycin / MBI 26
  MIC Alone: 64 µg/mL

## W R I W K P K W R L P K W [MBI 11D18CN]
[1]; A. baumannii ABI001
  Peptide MIC + Tobramycin: 4 µg/mL
  Tobramycin MIC + Peptide: 4 µg/mL
[1]; A. baumannii ABI001 (7. Tobramycin)
  Peptide MIC Alone: 64 µg/mL
[1]; A. baumannii ABI002
  Peptide MIC + Tobramycin: 0.5 µg/mL
  Tobramycin MIC + Peptide: 4 µg/mL
[1]; A. baumannii ABI002 (7. Tobramycin)
  Peptide MIC Alone: 16 µg/mL
[1]; A. calcoaceticus 3
  Peptide MIC + Piperacillin: 8 µg/mL
  Piperacillin MIC + Peptide: 8 µg/mL
[1]; A. calcoaceticus 3 (6. Piperacillin)
  Peptide MIC Alone: 32 µg/mL
[1]; E. cloacae 9
  Peptide MIC + Piperacillin: 16 µg/mL
  Piperacillin MIC + Peptide: 16 µg/mL
[1]; E. cloacae 9 (6. Piperacillin)
  Peptide MIC Alone: 64 µg/mL
[1]; E. cloacae 10
  Peptide MIC + Piperacillin: 16 µg/mL
  Piperacillin MIC + Peptide: 16 µg/mL
[1]; E. cloacae 10 (6. Piperacillin)
  Peptide MIC Alone: 32 µg/mL
[1]; E. faecalis EFS003
  Peptide MIC + Vancomycin: 32 µg/mL
  Vancomycin MIC + Peptide: 2 µg/mL
[1]; E. faecalis EFS003 (8. Vancomycin)
  Peptide MIC Alone: 64 µg/mL
[1]; E. faecalis EFS007
  Peptide MIC + Vancomycin: 8 µg/mL
  Vancomycin MIC + Peptide: 1 µg/mL
[1]; E. faecalis EFS007 (8. Vancomycin)
  Peptide MIC Alone: 16 µg/mL
[1]; E. faecalis EFS009
  Peptide MIC + Vancomycin: 4 µg/mL
  Vancomycin MIC + Peptide: 2 µg/mL
[1]; E. faecalis EFS009 (8. Vancomycin)
  Peptide MIC Alone: 8 µg/mL
[1]; E. faecium EFM004
  Peptide MIC + Vancomycin: 4 µg/mL
  Vancomycin MIC + Peptide: 0.5 µg/mL
[1]; E. faecium EFM004 (8. Vancomycin)
  Peptide MIC Alone: 8 µg/mL
[1]; E. faecium EFM007
  Peptide MIC + Vancomycin: 4 µg/mL
  Vancomycin MIC + Peptide: 0.5 µg/mL
[1]; E. faecium EFM007 (8. Vancomycin)
  Peptide MIC Alone: 8 µg/mL
[1]; E. faecium EFM009
  Peptide MIC + Vancomycin: 4 µg/mL
  Vancomycin MIC + Peptide: 1 µg/mL
[1]; E. faecium EFM009 (8. Vancomycin)
  Peptide MIC Alone: 8 µg/mL
[1]; E. faecium EFM010
  Peptide MIC + Vancomycin: 4 µg/mL
  Vancomycin MIC + Peptide: 1 µg/mL
[1]; E. faecium EFM010 (8. Vancomycin)
  Peptide MIC Alone: 8 µg/mL
[1]; P. aeruginosa 23
  Peptide MIC + Piperacillin: 4 µg/mL
  Piperacillin MIC + Peptide: 64 µg/mL
[1]; P. aeruginosa 23 (6. Piperacillin)
  Peptide MIC Alone: 64 µg/mL
[1]; P. aeruginosa PA032
  Peptide MIC + Tobramycin: 32 µg/mL
  Tobramycin MIC + Peptide: 4 µg/mL
[1]; P. aeruginosa PA032 (7. Tobramycin)
  Peptide MIC Alone: 64 µg/mL
[1]; P. aeruginosa PA77
  Ciprofloxacin MIC + Peptide: 0.5 µg/mL
  Peptide MIC + Ciprofloxacin: 32 µg/mL
[1]; P. aeruginosa PA77 (3. Ciprofloxacin)
  Peptide MIC Alone: 128 µg/mL
[1]; S. aureus MRSA 9, pair Mupirocin / MBI 11D18CN
  Peptide MIC: 2 µg/mL
[1]; S. epidermidis SE080
  Peptide MIC + Tobramycin: 1 µg/mL
  Tobramycin MIC + Peptide: 4 µg/mL
[1]; S. epidermidis SE080 (7. Tobramycin)
  Peptide MIC Alone: 2 µg/mL
[1]; S. maltophilia 2
  Peptide MIC + Piperacillin: 8 µg/mL
  Piperacillin MIC + Peptide: 16 µg/mL
[1]; S. maltophilia 2 (6. Piperacillin)
  Peptide MIC Alone: 32 µg/mL
[1]; S. maltophilia 14
  Peptide MIC + Piperacillin: 8 µg/mL
  Piperacillin MIC + Peptide: 16 µg/mL
[1]; S. maltophilia 14 (6. Piperacillin)
  Peptide MIC Alone: 16 µg/mL
[1]; S. maltophilia SMA027
  Peptide MIC + Tobramycin: 16 µg/mL
  Tobramycin MIC + Peptide: 4 µg/mL
[1]; S. maltophilia SMA027 (7. Tobramycin)
  Peptide MIC Alone: >128 µg/mL
[1]; S. maltophilia SMA029
  Peptide MIC + Tobramycin: 8 µg/mL
  Tobramycin MIC + Peptide: 2 µg/mL
[1]; S. maltophilia SMA029 (7. Tobramycin)
  Peptide MIC Alone: 32 µg/mL
[1]; S. marcescens 1
  Peptide MIC + Piperacillin: 4 µg/mL
  Piperacillin MIC + Peptide: 8 µg/mL
[1]; S. marcescens 1 (6. Piperacillin)
  Peptide MIC Alone: >128 µg/mL
[1]; peptide + Ciprofloxacin, P. aeruginosa PA77
  FIC: 0.50
[1]; peptide + Piperacillin, A. calcoaceticus 3
  FIC: 0.38
[1]; peptide + Piperacillin, E. cloacae 9
  FIC: 0.31
[1]; peptide + Piperacillin, E. cloacae 10
  FIC: 0.56
[1]; peptide + Piperacillin, P. aeruginosa 23
  FIC: 0.56
[1]; peptide + Piperacillin, S. maltophilia 2
  FIC: 0.50
[1]; peptide + Piperacillin, S. maltophilia 14
  FIC: 0.63
[1]; peptide + Piperacillin, S. marcescens 1
  FIC: 0.14
[1]; peptide + Tobramycin, A. baumannii ABI001
  FIC: 0.31
[1]; peptide + Tobramycin, A. baumannii ABI002
  FIC: 9.53
[1]; peptide + Tobramycin, P. aeruginosa PA032
  FIC: 11.00
[1]; peptide + Tobramycin, S. epidermidis SE080
  FIC: 0.75
[1]; peptide + Tobramycin, S. maltophilia SMA027
  FIC: 9.19
[1]; peptide + Tobramycin, S. maltophilia SMA029
  FIC: 0.27
[1]; peptide + Vancomycin, E. faecalis EFS003
  FIC: 0.75
[1]; peptide + Vancomycin, E. faecalis EFS007
  FIC: 0.63
[1]; peptide + Vancomycin, E. faecalis EFS009
  FIC: 0.75
[1]; peptide + Vancomycin, E. faecium EFM004
  FIC: 0.50
[1]; peptide + Vancomycin, E. faecium EFM007
  FIC: 0.50
[1]; peptide + Vancomycin, E. faecium EFM009
  FIC: 0.52
[1]; peptide + Vancomycin, E. faecium EFM010
  FIC: 0.59
[2]
  FIC: 0.56
  MIC Alone: 32 µg/mL
  MIC in combination: 16 µg/mL
[2]; [3]
  FIC: 0.26
  MIC Alone: 4 µg/mL
  MIC in combination: 1 µg/mL
[2]; [4]
  FIC: 0.52
  MIC Alone: 4 µg/mL
  MIC in combination: 2 µg/mL
